Measurements published in PMC6345558 (European journal of medicinal chemistry, 2018).

How the values were obtained:
MCF7 cancer cells = experiment: MTT cytotoxicity, MCF7 breast cancer cells; assay type: cell-based, human; conditions: for IC50: read-out: IC50 MCF7, MTT assay, 24 h incubation
MDA-MB-231 cancer cells = experiment: MTT cytotoxicity, MDA-MB-231 breast cancer cells; assay type: cell-based, human; conditions: read-out: IC50 MDA-MB-231; MTT assay, 24 h incubation
[1] = test system: NIH3T3 cells overexpressing P-gp; experiment: MTT growth inhibition, NIH3T3 cells overexpressing P-gp
[2] = test system: HEK293 cells overexpressing BCRP; experiment: MTT growth inhibition, HEK293 cells overexpressing BCRP; conditions: HEK293/BCRP vs HEK293
[3] = test system: HEK293 cells overexpressing MRP1; experiment: MTT growth inhibition, HEK293 cells overexpressing MRP1; conditions: HEK293/MRP1 vs HEK293
MRP2 = MRP2 (Homo sapiens, UniProt Q92887); experiment: Flow cytometry, inhibition of calcein AM efflux by MRP2; assay type: cell-based; conditions: compound 20 µM, 0.2 µM calcein AM, transfected cells
MRP1 = MRP1 (Homo sapiens, UniProt P33527); experiment: Flow cytometry, inhibition of calcein AM efflux by MRP1; assay type: cell-based; conditions: compound 20 µM, 0.2 µM calcein AM, transfected cells
BCRP (ABCG2) = molecular target: T1, BCRP (ABCG2) (Homo sapiens, UniProt Q9UNQ0); experiment: Flow cytometry, inhibition of mitoxantrone efflux by BCRP; conditions: compound 20 µM, 5 µM mitoxantrone, transfected cells
T1 sequence (Q9UNQ0 1-655): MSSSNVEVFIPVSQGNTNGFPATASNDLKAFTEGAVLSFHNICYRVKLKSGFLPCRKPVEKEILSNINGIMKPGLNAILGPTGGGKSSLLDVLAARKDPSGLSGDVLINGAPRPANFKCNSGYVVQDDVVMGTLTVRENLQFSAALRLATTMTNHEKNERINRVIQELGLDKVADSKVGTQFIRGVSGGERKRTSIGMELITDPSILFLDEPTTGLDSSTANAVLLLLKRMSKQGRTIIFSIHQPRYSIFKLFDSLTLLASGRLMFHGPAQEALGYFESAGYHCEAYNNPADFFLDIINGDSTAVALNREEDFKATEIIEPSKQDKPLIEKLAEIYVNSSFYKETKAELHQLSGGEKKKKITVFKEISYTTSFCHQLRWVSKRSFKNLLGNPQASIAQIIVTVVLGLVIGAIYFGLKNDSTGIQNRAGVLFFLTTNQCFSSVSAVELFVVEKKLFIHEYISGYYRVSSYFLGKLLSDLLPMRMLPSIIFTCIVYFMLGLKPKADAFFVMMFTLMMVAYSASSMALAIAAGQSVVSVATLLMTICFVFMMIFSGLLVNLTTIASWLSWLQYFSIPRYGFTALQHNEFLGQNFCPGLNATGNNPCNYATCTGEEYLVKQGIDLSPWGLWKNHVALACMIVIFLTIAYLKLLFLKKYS

NIH3T3 cells = experiment: MTT growth inhibition, NIH3T3 control cells; assay type: cell-based; conditions: read-out: Half inhibitory growth concentration, IG50, NIH3T3, empty plasmid control, 48 h incubation at 37 °C

MRP2, sequence (Q92887 whole entry): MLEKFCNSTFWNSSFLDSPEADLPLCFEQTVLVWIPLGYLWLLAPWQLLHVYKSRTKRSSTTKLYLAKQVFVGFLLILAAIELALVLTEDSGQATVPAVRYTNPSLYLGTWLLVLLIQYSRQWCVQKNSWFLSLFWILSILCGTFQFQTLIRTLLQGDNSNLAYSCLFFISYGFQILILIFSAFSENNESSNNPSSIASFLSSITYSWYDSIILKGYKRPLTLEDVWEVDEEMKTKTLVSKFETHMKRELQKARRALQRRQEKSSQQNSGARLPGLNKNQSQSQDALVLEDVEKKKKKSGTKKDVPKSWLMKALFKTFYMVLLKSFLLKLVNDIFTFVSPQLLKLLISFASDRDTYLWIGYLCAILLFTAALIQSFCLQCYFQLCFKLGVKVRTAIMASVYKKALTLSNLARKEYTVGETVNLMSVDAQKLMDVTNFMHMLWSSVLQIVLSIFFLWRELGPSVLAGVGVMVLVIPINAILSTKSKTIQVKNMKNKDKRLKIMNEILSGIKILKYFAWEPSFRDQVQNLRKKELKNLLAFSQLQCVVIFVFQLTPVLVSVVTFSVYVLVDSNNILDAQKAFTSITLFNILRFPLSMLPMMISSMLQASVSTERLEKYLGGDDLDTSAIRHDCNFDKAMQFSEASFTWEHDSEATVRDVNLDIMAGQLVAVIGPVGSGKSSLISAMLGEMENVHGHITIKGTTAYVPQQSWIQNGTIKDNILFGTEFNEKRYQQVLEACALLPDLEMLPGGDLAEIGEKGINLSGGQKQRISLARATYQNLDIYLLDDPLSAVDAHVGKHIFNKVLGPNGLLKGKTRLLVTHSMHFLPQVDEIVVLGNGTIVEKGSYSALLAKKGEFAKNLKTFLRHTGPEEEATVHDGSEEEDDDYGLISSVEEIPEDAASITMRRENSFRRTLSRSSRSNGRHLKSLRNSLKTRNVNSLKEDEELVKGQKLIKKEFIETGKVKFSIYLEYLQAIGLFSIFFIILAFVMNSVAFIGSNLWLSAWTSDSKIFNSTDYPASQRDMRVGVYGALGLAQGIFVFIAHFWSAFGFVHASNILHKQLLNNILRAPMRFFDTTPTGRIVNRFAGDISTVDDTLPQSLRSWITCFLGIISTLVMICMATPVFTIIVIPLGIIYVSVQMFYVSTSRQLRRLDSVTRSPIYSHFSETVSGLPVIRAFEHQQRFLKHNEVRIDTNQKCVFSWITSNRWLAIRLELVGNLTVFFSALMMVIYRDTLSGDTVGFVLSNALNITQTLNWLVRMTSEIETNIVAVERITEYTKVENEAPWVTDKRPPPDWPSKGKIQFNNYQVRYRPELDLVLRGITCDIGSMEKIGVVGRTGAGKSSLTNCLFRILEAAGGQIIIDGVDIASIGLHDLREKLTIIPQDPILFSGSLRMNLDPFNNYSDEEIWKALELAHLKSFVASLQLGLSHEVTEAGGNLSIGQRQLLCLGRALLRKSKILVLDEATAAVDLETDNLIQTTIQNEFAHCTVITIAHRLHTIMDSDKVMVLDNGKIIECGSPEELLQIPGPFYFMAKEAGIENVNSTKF
MRP1, sequence (P33527 whole entry): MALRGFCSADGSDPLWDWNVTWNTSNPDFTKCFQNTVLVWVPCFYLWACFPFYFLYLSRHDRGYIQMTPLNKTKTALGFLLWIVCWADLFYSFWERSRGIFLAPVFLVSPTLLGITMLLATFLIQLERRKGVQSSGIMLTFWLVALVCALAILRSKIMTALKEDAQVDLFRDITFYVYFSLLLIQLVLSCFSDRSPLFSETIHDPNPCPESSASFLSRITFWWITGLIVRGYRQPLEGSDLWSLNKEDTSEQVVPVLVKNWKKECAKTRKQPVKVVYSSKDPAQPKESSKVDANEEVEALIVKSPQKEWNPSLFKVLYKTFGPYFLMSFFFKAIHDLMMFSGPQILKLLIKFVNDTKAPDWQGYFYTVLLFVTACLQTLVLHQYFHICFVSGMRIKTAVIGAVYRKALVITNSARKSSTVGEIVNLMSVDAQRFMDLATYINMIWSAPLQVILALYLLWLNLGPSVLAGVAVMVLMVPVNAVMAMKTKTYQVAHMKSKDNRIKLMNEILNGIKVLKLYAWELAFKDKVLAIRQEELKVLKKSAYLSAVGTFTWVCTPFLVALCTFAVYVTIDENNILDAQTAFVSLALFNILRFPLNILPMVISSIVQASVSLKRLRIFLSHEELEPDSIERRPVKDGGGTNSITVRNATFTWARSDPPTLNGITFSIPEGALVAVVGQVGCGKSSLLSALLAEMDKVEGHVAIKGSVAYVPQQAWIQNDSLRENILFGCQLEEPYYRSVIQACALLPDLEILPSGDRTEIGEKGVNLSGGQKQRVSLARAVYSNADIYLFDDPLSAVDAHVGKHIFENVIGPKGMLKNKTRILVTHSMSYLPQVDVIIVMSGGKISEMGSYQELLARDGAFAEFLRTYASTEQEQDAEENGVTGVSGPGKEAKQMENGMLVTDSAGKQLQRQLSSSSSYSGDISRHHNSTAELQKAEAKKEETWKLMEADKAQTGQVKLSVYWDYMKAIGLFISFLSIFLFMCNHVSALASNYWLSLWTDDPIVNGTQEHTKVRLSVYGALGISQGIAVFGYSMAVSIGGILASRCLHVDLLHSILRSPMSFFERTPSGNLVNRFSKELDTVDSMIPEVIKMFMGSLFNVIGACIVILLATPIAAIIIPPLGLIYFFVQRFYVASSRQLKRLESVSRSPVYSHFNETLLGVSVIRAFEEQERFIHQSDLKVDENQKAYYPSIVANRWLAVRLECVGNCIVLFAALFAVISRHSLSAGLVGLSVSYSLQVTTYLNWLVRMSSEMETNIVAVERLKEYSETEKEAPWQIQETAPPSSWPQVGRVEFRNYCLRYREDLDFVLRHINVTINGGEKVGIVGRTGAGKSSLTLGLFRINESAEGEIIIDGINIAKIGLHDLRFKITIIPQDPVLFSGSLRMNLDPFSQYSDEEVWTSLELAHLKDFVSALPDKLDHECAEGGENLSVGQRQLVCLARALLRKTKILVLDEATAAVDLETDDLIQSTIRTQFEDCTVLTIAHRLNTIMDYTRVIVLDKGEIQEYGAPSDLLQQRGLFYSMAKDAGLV

SMILES	IC50 (MCF7 cancer cells) [µM]	IC50 (MDA-MB-231 cancer cells) [µM]	IG50 times higher than for non-transfected cells, P-gp ([1]; NIH3T3/P-gp vs NIH3T3) [times]	IC50 ([1]; read-out: Half inhibitory growth concentration, IG50, P-gp, NIH3T3 overexpressing P-gp, 48 h incubation at 37 °C, MTT) [µM]	IG50 times higher than for non-transfected cells, BCRP [2] [times]	IG50 times higher than for non-transfected cells, MRP1 [3] [times]	fold more cytotoxic than Ru2 (MCF7 cancer cells; MCF7 cancer cell line)	Inhibition of MRP2 substrate efflux (MRP2)	Inhibition of MRP1 substrate efflux (MRP1)	Inhibition of BCRP (ABCG2) substrate efflux (BCRP (ABCG2))	IC50 (NIH3T3 cells) [µM]
N.N.[Cl][Pt][Cl] [Cisplatin, reference compound]	38 ± 1.41	122 ± 25									
O=S(=O)([O-])C(F)(F)F.OCc1ccnc(-c2cc(CO)ccn2)c1.[Ru+2].c1cc[cH-]c1.c1ccc(P(c2ccccc2)c2ccccc2)cc1 [Ru1, [Ru(η^5-Cp)(PPh3)(2,2’-bipyridine-4,4’-dimethanol)][CF3SO3]]	4.61 ± 0.96	13.9 ± 2.8	2.4	~70	2.8	2	~ 7 fold	did not display any inhibition property	did not display any inhibition property	did not display any inhibition property	28
